Results as given in ChEMBL document CHEMBL5512613, “Design and synthesis of novel 3-amino-5-phenylpyrazole derivatives as tubulin polymerization inhibitors targeting the colchicine-binding site” (Eur J Med Chem, 2024).
Calls of active or inactive are those of the source. No cut-off for these calls is given here.

Assays:
MCF7 [1] = experiment: Induction of apoptosis in human MCF7 cells assessed as increase in cleaved caspase-9 protein expression at 6.25 to 50 nM incubated for 24 hrs by western blot analysis; assay type: functional, cell-based; conditions: dose 6.25-50 nM
MCF7 [2] = experiment: Induction of cell cycle arrest in human MCF7 cells assessed as proportion of cells at S phase at 25 nM incubated for 24 hrs by PI staining based flow cytometry (reference value: 21.1%); assay type: functional
MCF7 [3] = experiment: Induction of cell cycle arrest in human MCF7 cells assessed as proportion of cells at G1 phase at 6.25 nM incubated for 24 hrs by PI staining based flow cytometry (reference value: 64.5%); assay type: functional
[4] = Cytotoxicity against human L02 cells assessed as inhibition of cell growth incubated for 48 hrs by MTT assay; assay type: toxicity, cell-based
Tubulin (Homo sapiens) [5] = target: T1, Tubulin (Homo sapiens) (UniProt P68371+Q9H4B7+P0DPH7+P68366+Q13509+Q71U36+P04350+Q3ZCM7+P07437+P68363+Q9BQE3+Q6PEY2+Q13885+Q9BVA1+Q9BUF5); experiment: Displacement of [3H]colchicine from tubulin (unknown origin) at 1 uM incubated for 2 hrs by scinitillation proximity assay; assay type: protein-complex assay
MCF7 [6] = experiment: Induction of apoptosis in human MCF7 cells assessed as increase in cleaved caspase-3 protein expression at 6.25 to 50 nM incubated for 24 hrs by western blot analysis; assay type: functional, cell-based; conditions: dose 6.25-50 nM
MCF7 [7] = experiment: Antiproliferative activity against human MCF7 cells assessed as inhibition of cell growth incubated for 48 hrs by MTT assay; assay type: functional, cell-based; conditions: MCF7, 48 h
HeLa = experiment: Antiproliferative activity against human HeLa cells assessed as inhibition of cell growth incubated for 48 hrs by MTT assay; assay type: functional, cell-based
MCF7 [8] = experiment: Induction of cell cycle arrest in human MCF7 cells assessed as proportion of cells at G2 phase at 25 nM incubated for 24 hrs by PI staining based flow cytometry (reference value: 14.4%); assay type: functional
MCF7 [9] = experiment: Induction of cell cycle arrest in human MCF7 cells assessed as proportion of cells at G1 phase at 12.5 nM incubated for 24 hrs by PI staining based flow cytometry (reference value: 64.5%); assay type: functional
MCF7 [10] = experiment: Induction of apoptosis in human MCF7 cells at 50 nM incubated for 12 to 48 hrs by AnnexinV-FITC/PI staining based flow cytometry; assay type: functional, cell-based; conditions: time 12-48 hrs, TDE = time-dependent effect
MCF7 [11] = experiment: Induction of cell cycle arrest in human MCF7 cells assessed as increase in CDK7 protein expression at 6.25 to 50 nM incubated for 24 hrs by western blot analysis; assay type: functional, cell-based; conditions: dose 6.25-50 nM
Tubulin (Homo sapiens) [12] = target: T1, Tubulin (Homo sapiens); experiment: Inhibition of tubulin polymerization in human MCF7 cells assessed as disruption of microtubule network into punctate at 25 to 200 nM incubated for 8 hrs by DAPI staining based immunofluorescence assay; assay type: cell-based; conditions: dose 25-200 nM
MCF7 [13] = experiment: Induction of apoptosis in human MCF7 cells assessed as increase in Bax protein expression at 6.25 to 50 nM incubated for 24 hrs by western blot analysis; assay type: functional, cell-based; conditions: dose 6.25-50 nM
MCF7 [14] = experiment: Induction of cell cycle arrest in human MCF7 cells assessed as proportion of cells at S phase at 25 nM incubated for 12 hrs by PI staining based flow cytometry (reference value: 21.1%); assay type: functional
HUVEC = experiment: Anti-vascular activity in human HUVEC cells assessed as reduction in length of capillary-like tubules incubated for 6 hrs by Matrigel based inverted fluorescence microscopy; assay type: functional, cell-based; conditions: dose 6.25-50 nM
MCF7 [15] = experiment: Antitumor activity against human MCF7 cells xenografted in BALB/c mouse assessed as inhibition of tumor growth by measuring decrease in tumor weight at 5 mg/kg, ip administered every 3 days for 21 days; assay type: functional; conditions: MCF7, 504 h, time 21 day, read-out: TGI
MCF7 [16] = experiment: Induction of cell cycle arrest in human MCF7 cells assessed as increase in cyclin B1 protein expression at 6.25 to 50 nM incubated for 24 hrs by western blot analysis; assay type: functional, cell-based; conditions: dose 6.25-50 nM
MCF7 [17] = experiment: Antitumor activity against human MCF7 cells xenografted in BALB/c mouse assessed as inhibition of tumor growth by measuring decrease in tumor weight at 20 mg/kg, ip administered every 3 days for 21 days; assay type: functional; conditions: MCF7, 504 h, time 21 day, read-out: TGI
A549 [18] = experiment: Antiproliferative activity against human A549 cells assessed as inhibition of cell growth incubated for 48 hrs by MTT assay; assay type: functional, cell-based; conditions: A549, 48 h
[19] = target: Tubulin beta (Homo sapiens) (UniProt P68371+Q9H4B7+Q13509+P04350+Q3ZCM7+P07437+Q13885+Q9BVA1+Q9BUF5+A6NNZ2); experiment: Binding affinity to beta-tubulin (unknown origin) assessed as decrease in beta-tubulin/EBI adduct formation at 0.2 to 25 uM incubated for 2 hrs followed by incubation with EBI for 1.5 hrs by EBI competition based western blot analysis; assay type: protein assay; conditions: dose 0.2-25 µM, time 3.5 hrs
MCF7 [20] = experiment: Induction of cell cycle arrest in human MCF7 cells assessed as proportion of cells at G1 phase at 25 nM incubated for 24 hrs by PI staining based flow cytometry (reference value: 64.5%); assay type: functional
MCF7 [21] = experiment: Antitumor activity against human MCF7 cells xenografted in BALB/c mouse assessed as inhibition of tumor growth by measuring decrease in tumor weight at 10 mg/kg, ip administered every 3 days for 21 days; assay type: functional; conditions: MCF7, 504 h, time 21 day, read-out: TGI
MCF7 [22] = experiment: Induction of apoptosis in human MCF7 cells assessed as decrease in Bcl-2 protein expression at 6.25 to 50 nM incubated for 24 hrs by western blot analysis; assay type: functional, cell-based; conditions: dose 6.25-50 nM
MCF7 [23] = experiment: Induction of cell cycle arrest in human MCF7 cells assessed as proportion of cells at G2 phase at 25 nM incubated for 6 hrs by PI staining based flow cytometry (reference value: 14.4%); assay type: functional
MCF7 [24] = experiment: Induction of apoptosis in human MCF7 cells at 12.5 to 50 nM incubated for 24 hrs by AnnexinV-FITC/PI staining based flow cytometry; assay type: functional, cell-based; conditions: dose 12.5-50 nM
MCF7 [25] = experiment: Induction of cell cycle arrest in human MCF7 cells assessed as increase in p21 protein expression at 6.25 to 50 nM incubated for 24 hrs by western blot analysis; assay type: functional, cell-based; conditions: dose 6.25-50 nM
MDA-MB-231 = experiment: Antiproliferative activity against human MDA-MB-231 cells assessed as inhibition of cell growth incubated for 48 hrs by MTT assay; assay type: functional, cell-based; conditions: MDA-MB-231, 48 h
HT-29 = experiment: Antiproliferative activity against human HT-29 cells assessed as inhibition of cell growth incubated for 48 hrs by MTT assay; assay type: functional, cell-based; conditions: HT-29, 48 h
MCF7 [26] = experiment: Induction of cell cycle arrest in human MCF7 cells assessed as proportion of cells at S phase at 25 nM incubated for 6 hrs by PI staining based flow cytometry (reference value: 21.1%); assay type: functional
MCF7 [27] = experiment: Induction of cell cycle arrest in human MCF7 cells assessed as proportion of cells at S phase at 12.5 nM incubated for 24 hrs by PI staining based flow cytometry (reference value: 21.1%); assay type: functional
A549 [28] = experiment: Inhibition of cell migration in human A549 cells assessed as decrease in number of cells passing through membrane at 6.25 to 50 nM incubated for 24 hrs by transwell assay; assay type: functional, cell-based; conditions: dose 6.25-50 nM
MCF7 [29] = experiment: Induction of cell cycle arrest in human MCF7 cells assessed as proportion of cells at G1 phase at 25 nM incubated for 6 hrs by PI staining based flow cytometry (reference value: 64.5%); assay type: functional

Q: Which Activity (MCF7 [1]) does the source give for `COc1cc(C(=O)n2nc(N)cc2-c2ccc(C)cc2)cc(OC)c1OC` here?
A: Active

Q: And the Activity (MCF7 [2])?
A: 10.65%

Q: And the Activity (MCF7 [3])?
A: 53.3%

Q: And the IC50 at 48 h [4]?
A: 2.73 µM

Q: What about the inhibition (Tubulin (Homo sapiens) [5]) of the same compound?
A: 68.4%

Q: And the Activity (MCF7 [6])?
A: Active

Q: And the IC50 (MCF7 [7])?
A: 0.04 µM

Q: And the IC50 (HeLa)?
A: 0.11 µM

Q: What about the Activity (MCF7 [8]) of the same compound?
A: 80.2%

Q: What about the Activity (MCF7 [9]) of the same compound?
A: 45.1%

Q: What about the Activity (MCF7 [10]) of the same compound?
A: Tde

Q: What about the Activity (MCF7 [11]) of the same compound?
A: Active

Q: And the inhibition (Tubulin (Homo sapiens) [12])?
A: Active

Q: And the Activity (MCF7 [13])?
A: Active

Q: What about the Activity (MCF7 [14]) of the same compound?
A: 22.9%

Q: And the Activity (HUVEC)?
A: Dose-Dependent Effect

Q: And the inhibition in vivo at 5 mg/kg (MCF7 [15])?
A: 27%

Q: What about the Activity (MCF7 [16]) of the same compound?
A: Active

Q: And the inhibition in vivo at 20 mg/kg (MCF7 [17])?
A: 69%

Q: And the IC50 (A549 [18])?
A: 0.39 µM

Q: And the Activity [19]?
A: Active

Q: What about the Activity (MCF7 [20]) of the same compound?
A: 7.65%

Q: And the inhibition in vivo at 10 mg/kg (MCF7 [21])?
A: 36.1%

Q: And the Activity (MCF7 [22])?
A: Active

Q: What about the Activity (MCF7 [23]) of the same compound?
A: 46.7%

Q: What about the Activity (MCF7 [24]) of the same compound?
A: Dose-Dependent Effect

Q: What about the Activity (MCF7 [25]) of the same compound?
A: Active

Q: What about the IC50 (MDA-MB-231) of the same compound?
A: 0.04 µM

Q: And the IC50 (HT-29)?
A: 0.06 µM

Q: And the Activity (MCF7 [26])?
A: 22%

Q: And the Activity (MCF7 [27])?
A: 15.7%

Q: And the inhibition (A549 [28])?
A: Active

Q: What about the Activity (MCF7 [29]) of the same compound?
A: 31.3%
